Laboratory results: US6063778A, “Cephalosporin derivatives and processes for the preparation thereof” (Il-Dong Pharm. Co., Ltd., priority 1995, dated 2000)
Values after ≈ are worked out from the molar mass of the structure shown. Where two headings read alike, the source gives them in different places.

Key:
[1] = tested on: Enterobacter cloace 1321E; experiment: MIC by agar dilution, in vitro activity test; type: cell-based; details: 37° C., 18 to 20 hours, read-out: Minimal Inhibitory Concentration (MIC)
Experimental: (§1) These MIC values were determined by agar dilution method: that is, two-fold dilutions of each of the test compounds were made and dispersed in a Mueller-Hinton Broth medium. Standard test strain which had the 10^6 CFU per ml was inoculated on the medium, and was incubated at 37° C. for 18 to 20 hours.

Salmonella typhimurium = experiment: MIC by agar dilution, in vitro activity test; type: cell-based; details: Salmonella enterica, 37° C., 18 to 20 hours, read-out: Minimal Inhibitory Concentration (MIC)
Experimental: as §1

[2] = tested on: Pseudomonas aeruginosa 1592E; experiment: MIC by agar dilution, in vitro activity test; type: cell-based; details: 37° C., 18 to 20 hours, read-out: Minimal Inhibitory Concentration (MIC)
Experimental: as §1

[3] = tested on: Pseudomonas aeruginosa 1771M; experiment: MIC by agar dilution, in vitro activity test; type: cell-based; details: 20 h, read-out: Minimal Inhibitory Concentration (MIC)
Experimental: as §1

Escherichia coli DC 2 = experiment: MIC by agar dilution, in vitro activity test; type: cell-based; details: DC2, 37° C., 18 to 20 hours, read-out: Minimal Inhibitory Concentration (MIC)
Experimental: as §1

Escherichia coli 078 = experiment: MIC by agar dilution, in vitro activity test; type: cell-based; details: 37° C., 18 to 20 hours, read-out: Minimal Inhibitory Concentration (MIC)
Experimental: as §1

[4] = tested on: Pseudomonas aeruginosa 9071; experiment: MIC by agar dilution, in vitro activity test; type: cell-based; details: 37° C., 18 to 20 hours, read-out: Minimal Inhibitory Concentration (MIC)
Experimental: as §1

[5] = tested on: Staphylococcus aureus SG511; experiment: MIC by agar dilution, in vitro activity test; type: cell-based; details: 37° C., 18 to 20 hours, read-out: Minimal Inhibitory Concentration (MIC)
Experimental: as §1

[6] = tested on: Staphylococcus aureus 503; experiment: MIC by agar dilution, in vitro activity test; type: cell-based; details: 37° C., 18 to 20 hours, read-out: Minimal Inhibitory Concentration (MIC)
Experimental: as §1

[7] = tested on: Klebsiella aerogenes 1082E; experiment: MIC by agar dilution, in vitro activity test; type: cell-based; details: 37° C., 18 to 20 hours, read-out: Minimal Inhibitory Concentration (MIC)
Experimental: as §1

[8] = tested on: Staphylococcus aureus 285; experiment: MIC by agar dilution, in vitro activity test; type: cell-based; details: 37° C., 18 to 20 hours, read-out: Minimal Inhibitory Concentration (MIC)
Experimental: as §1

Enterobacter cloace P99 = experiment: MIC by agar dilution, in vitro activity test; type: cell-based; details: P99, 20 h, read-out: Minimal Inhibitory Concentration (MIC)
Experimental: as §1

Escherichia coli 1507E = experiment: MIC by agar dilution, in vitro activity test; type: cell-based; details: Escherichia coli 1507E; agar dilution, 37° C., 18 to 20 hours; read-out: Minimal Inhibitory Concentration (MIC)
Experimental: as §1

[9] = tested on: Klebsiella aerogenes 1522E; experiment: MIC by agar dilution, in vitro activity test; type: cell-based; details: Klebsiella aerogenes 1522E; agar dilution, 37° C., 18 to 20 hours; read-out: Minimal Inhibitory Concentration (MIC)
Experimental: as §1

[10] = tested on: Streptococcus pyogenes 71A; experiment: MIC by agar dilution, in vitro activity test; type: cell-based; details: 37° C., 18 to 20 hours, read-out: Minimal Inhibitory Concentration (MIC)
Experimental: as §1

Escherichia coli DC 0 = experiment: MIC by agar dilution, in vitro activity test; type: cell-based; details: DC0, 37° C., 18 to 20 hours, read-out: Minimal Inhibitory Concentration (MIC)
Experimental: as §1

[11] = tested on: Streptococcus faecium MD 8b; experiment: MIC by agar dilution, in vitro activity test; type: cell-based; details: Enterococcus faecium, MD8B, 20 h, read-out: Minimal Inhibitory Concentration (MIC)
Experimental: as §1

Escherichia coli TEM = experiment: MIC by agar dilution, in vitro activity test; type: cell-based; details: 20 h, read-out: Minimal Inhibitory Concentration (MIC)
Experimental: as §1

[12] = tested on: Pseudomonas aeruginosa 1771; experiment: MIC by agar dilution, in vitro activity test; type: cell-based; details: 37° C., 18 to 20 hours, read-out: Minimal Inhibitory Concentration (MIC)
Experimental: These MIC values were determined by agar dilution method: that is, two-fold dilutions of each of the test compounds were made and dispersed in a Mueller-Hinton Broth medium.

Acute toxicity study = type: in vivo; details: mouse, in vivo
Experimental: In order to illustrate usefulness of the compounds of the present invention, acute toxicity test of the compounds synthesized in the above Examples were carried out. Each dose of the compounds dissolved in saline and buffer solution (PH=7.0) was administered by intravenous or subcutaneous injection. Mortalities of the animals was recorded seven days latter.
.asterisk-pseud. Mouse: Male ICR strain, 4 weeks

Pseudomonas aeruginosa = experiment: MIC by agar dilution, comparison in words; type: cell-based; details: against Pseudomonas aeruginosa; vs Cefpirome
Experimental: as §1

## CC[N+](C)(CC=CC(N)=O)C/C=C/C1=C(C(=O)[O-])N2C(=O)[C@@H](NC(=O)/C(=N\OC)c3nsc(N)n3)[C@H]2SC1 (stereo partly drawn) [Example 13, 7β-[(Z)-2-(5-amino-1,2,4-thiadiazol-3-yl)-2-methoxyiminoacetamido]-3-[(E)-3-[(1-carbamoyl-1-propen-3-yl)-3-ethylmethylammonio]-1-propen-1-yl]3-cephem-4-carboxylate]
[1]
  MIC: 0.05 µg/mL (≈ 0.0886 µM)
Salmonella typhimurium
  MIC: 0.2 µg/mL (≈ 0.354 µM)
[2]
  MIC: 1.6 µg/mL (≈ 2.83 µM)
[3]
  MIC: 0.4 µg/mL (≈ 0.708 µM)
Escherichia coli DC 2
  MIC: 0.2 µg/mL (≈ 0.354 µM)
Escherichia coli 078
  MIC: 0.05 µg/mL (≈ 0.0886 µM)
[4]
  MIC: 3.1 µg/mL (≈ 5.49 µM)
[5]
  MIC: 0.8 µg/mL (≈ 1.42 µM)
[6]
  MIC: 0.8 µg/mL (≈ 1.42 µM)
[7]
  MIC: 3.1 µg/mL (≈ 5.49 µM)
[8]
  MIC: 0.8 µg/mL (≈ 1.42 µM)
Enterobacter cloace P99
  MIC: 1.6 µg/mL (≈ 2.83 µM)
Escherichia coli 1507E
  MIC: 0.1 µg/mL (≈ 0.177 µM)
[9]
  MIC: 0.2 µg/mL (≈ 0.354 µM)
[10]
  MIC: 0.025 µg/mL (≈ 0.0443 µM)
Escherichia coli DC 0
  MIC: 0.025 µg/mL (≈ 0.0443 µM)
[11]
  MIC: > 100 µg/mL
Escherichia coli TEM
  MIC: 0.05 µg/mL (≈ 0.0886 µM)
[12]
  MIC: 1.6 µg/mL (≈ 2.83 µM)
Acute toxicity study; iv, i.v, male ICR mouse, 4 weeks, mortality at seven days, read-out: LD50 i.v
  LD50 at 168 h: > 2000 mg/kg
Acute toxicity study; iv, intravenous routes, read-out: acute toxicity in intravenous routes
  LD50 at 168 h: > 2000 mg/kg
Acute toxicity study; sc, s.c, male ICR mouse, 4 weeks, mortality at seven days, read-out: LD50 s.c
  LD50 at 168 h: > 3000 mg/kg
Pseudomonas aeruginosa
  MICs compared with Cefpirome: superior to that of Cefpirome
